The source of these data is patent US12133855B2, “Lipid-like nanocomplexes and uses thereof” (Trustees of Tufts College, priority 2018, dated 2024).

Molecules are shown by their SMILES.

The subject of data set [1] is GFP-HEK cells. The procedure:
Cell viability was measured by the standard MTT assay. HeLa-DsRed or GFP-HEK cells were seeded into 96-well plate with a density of 5×10^3 cell/well. (−30)GFP-Cre/LNP or Cas9:sgRNA/LNP nanoparticles were added after 24 h of incubation. The final concentration of protein is 25 nM and LNP is 3.3 mg/L. After incubating for 24 h or 48 h, the MTT reagent (5 mg/mL, in 30 μL PBS buffer) was added and the cells were incubated for another 4 h at 37° C. The cell culture media were then carefully removed and 200 μL of DMSO were added. The DMSO solution was transferred into another 96-well plate and the absorbance at 570 nm was recorded by microplate reader. All experiments were performed in quadruplicate.
In vitro cytotoxicity of Cas9:sgRNA/LNPs against GFP-HEK cells was also evaluated by the MTT assay.

Data set [2] deals with GFP-HEK cells. In words: Cas9:sgRNA RNP delivery, GFP gene knockout. The data set is classed as cell-based. The conditions noted are these: 48 h; 25 nM Cas9:sgRNA RNP; lipidoid 3.3 mg/L. The procedure:
For CRISPR/Cas9 gene knockout study, GFP-HEK cells were seeded in 48-well plate with a density of 2×10^4 cell/well. After 24 h of incubation, Cas9:sgRNA/LNP nanoparticles were added to the cells and incubated for 4 h, followed by media changed. After 48 h of incubation, the green emission from GFP was analyzed by flow cytometry.
For the intracellular delivery, GFP-HEK cells were harvested after treating with Cas9:sgRNA/LNPs nanocomplexes for 48 h. GFP gene knockout efficacy was further evaluated by flow cytometry.

Data set [3] is described as follows: Hydrodynamic size and polydispersity of lipidoid nanoparticles by DLS. The conditions noted are these: blank LNPs. It counts as physicochemical. The procedure:
(§1) All chemicals used for lipidoids synthesis were purchased from Sigma-Aldrich without further purification unless otherwise noted. (−30)GFP-Cre recombinase, S. pyogenes Cas9 (spCas9) and sgRNA were generated following the protocols reported in Wang at al., Proc. Natl. Acad. Sci. USA, 2016, 113, 2868-2873 (“Wang”). HeLa-DsRed and GFP-HEK cells were cultured in Dulbecco's modified eagle's medium (DMEM, Sigma-Aldrich) with 10% fetal bovine serum (FBS, Sigma-Aldrich) and 1% penicillin-streptomycin (Gibco). All ^1H NMR spectra were recorded on a Bruker AVIII 500 MHz NMR spectrometer operated in the Fourier transform mode. Hydrodynamic size and polydispersity index of nanoparticles were measured by Zeta-PALS particle size analyzer (Brookhaven Instruments). The apparent pKa values of lipidoids were determined using 2-(p-toluidinynaphthalene-6-sulphonic acid) (TNS, Sigma-Aldrich) as fluorescent probe following the protocols reported in Heyes et al., J. Controlled Release, 2005, 107, 276-287. TEM measurements were performed on a FEI Technai Transmission Electron Microscope. Fluorescence images of tissue slices were obtained using BZ-X Analyzer fluorescence microscope.
Lipidoids nanoparticles (LNPs) were fabricated in sodium acetate buffer (25 mM, pH 5.2) by following the simple ultrasonication and vortex procedures described above. Hydrodynamic sizes and polydispersity index (PDI) of LNPs were measured by dynamic laser scattering (DLS) analysis.
Lipidoids were fabricated into nanoparticles for all delivery applications.
In this context, two strategies were tested, i.e., synthesizing new OCholB-tailed lipidoids with single tail rather than full substitution, and adding helper lipids (phospholipids) into fully substituted OCholB LNPs. […] The delivery efficacies of the single-tailed LNPs were first tested using GFP mRNA against HeLa cells (lipidoid/mRNA=10/1; [mRNA]=0.86 μg mL^−1; 24 h of exposure). […] We then tried to add helper lipids into the original two-tailed OCholB lipidoid nanoparticles formulations. As a proof-of-concept, DOPE was mixed with OCholB lipidoids (lipidoid/DOPE=1/1, weight ratio) and nanoparticles were fabricated (noted as 75-OCholB-F, 76-OCholB-F, and 77-OCholB-F) and loaded with Cas9 mRNA and sgRNA (mRNA/sgRNA=1/1, weight ratio).

Data set [4] relates to HeLa-DsRed cells. In words: Cre-mediated gene recombination (DsRed expression) after (−30)GFP-Cre/LNP delivery. The data set is classed as cell-based. The settings on record: 24 h; 25 nM (−30)GFP-Cre; lipidoid 3.3 mg/L. The procedure:
(§2) The final (−30)GFP-Cre protein concentration is 25 nM, and lipidoid concentration is 3.3 mg/L. For the gene recombination functional study, HeLa-DsRed cells were treated with same conditions and the red fluorescence emission from DsRed was analyzed by flow cytometry 24 h after delivery.
The top 12 of LNPs identified through intracellular delivery screening experiments were further tested for gene recombination using HeLa-DsRed model cells. The expression of DsRed from Cre protein mediated gene recombination was analyzed after 24 h of co-incubation with free (−30)GFP-Cre protein and protein loaded LNPs. […] Most of the test LNPs, on the other hand, efficiently delivered (−30)GFP-Cre protein and induced gene recombination, with 14-46% of the cells positive for DsRed.

In a further data set the test system is Ai14 mice. The experiment in a line: In vivo (−30)GFP-Cre delivery with formulated O17 LNPs, intravenous, tdTomato expression. Details: species or system mouse. The settings on record: day 0 and day 5, 100 μg protein each, organs at day 20. The procedure:
Formulated LNPs (lipidoid/Cholesterol/DOPE/DSPE-PEG2k=16/4/1/4, weight ratio) were prepared for protein loading and mice injection. Ai14 mice were housed in a temperature and humidity controlled facility with a 12 h light/dark cycle. Two mice in each group were injected with (−30)GFP-Cre/LNPs formulations on day 0 and 5, with 100 μg protein for each injection. Organs including heart, liver, spleen, lung and kidney from all groups were collected 20 days after injections. The tissues were fixed overnight in 4% paraformaldehyde (PFA) before being sectioning into 10 μm slices. The slices were collected and stained with DAPI for fluorescence imaging.
Upon Cre mediated gene recombination, the STOP cassette was removed, resulting in tdTomato expression. Considering the different performances of cargo loaded LNPs in vitro and in vivo, three LNPs with same amine heads and different tails (76-O17O, 76-O17S and 76-O17Se) were tested in this study. Formulated LNPs (lipidoid/cholesterol/DOPE/DSPE-PEG2k=16/4/1/4, weight ratio) were prepared. Mice were injected (intravenous injection) with (−30)GFP-Cre loaded the formulated LNPs (GFP-Cre/76-O17O, GFP-Cre/76-O17S, and GFP-Cre/76-O17Se) at day 0 and day 5 (100 μg of protein for each injection). […] Fluorescence images with lower magnification and larger field of view were obtained. […]

Data set [5] is described as follows: Storage stability of LNPs (time-dependent DLS, DiO/DiI FRET). It counts as physicochemical. The conditions noted are these: DiO and DiI loaded LNPs, five days of storage. The procedure:
(§3) The morphologies of LNPs were further studied by the transmission electron microscopy (TEM). […] Subsequently, the stability of LNPs thus prepared was examined by DLS and fluorescence measurements.
The cell (HeLa and HeLa-DsRed cell lines) internalization studies were conducted using small molecular hydrophobic (nile red) and hydrophilic (calcein) fluorescent dyes and macromolecular fluorescent recombinant protein ((−30)GFP-Cre) loaded OCholB LNPs. The stabilities of cargo-loaded LNPs were examined at first using time-dependent DLS and fluorescence measurements.

The subject of data set [6] is HeLa-DsRed cells. The experiment in a line: Intracellular delivery of (−30)GFP-Cre/LNP (GFP-positive cells). It counts as cell-based. The conditions noted are these: 25 nM (−30)GFP-Cre, lipidoid 3.3 mg/L; for green fluorescence emission (fluorescence microscopy): 6 h incubation; for GFP-positive cells: flow cytometry, 6 h. The procedure: as §2
A Cre recombinase protein fused to a negatively supercharged GFP variant ((−30)GFP-Cre) was used as a model cargo protein. The (−30)GFP-Cre protein was able to complex with cationic LNPs through electrostatic attraction and other types supramolecular interactions. The cellular uptake of LNPs could be determined by direct analysis of intracellular GFP fluorescent intensity as reported in Wang. HeLa-DsRed cells were used in this study, which expressed red fluorescent DsRed upon Cre-mediated recombination to facilitate the functional study of delivered proteins in the following study.
The (−30)GFP-Cre protein loaded LNPs (GFP-Cre/LNPs) were prepared at first by simply mixing precalculated amount of aqueous solution of LNPs and protein at ambient conditions. For the intracellular delivery, after incubation with GFP-Cre/LNPs nanoparticles for 6 h, the GFP-positive cells were observed using fluorescence microscopy, harvested and counted by flow cytometry. […] The intracellular (−30)GFP-Cre protein delivery efficiencies were further quantified by flow cytometry.

Data set [7] can be described thus: TEM size of lipidoid nanoparticles. The data set is classed as physicochemical. The settings on record: TEM images of LNPs. The procedure:
as §1, §3
The morphologies of OCholB fully substituted LNPs were then examined by transmission electron microscopy (TEM). […] In contrast, the vesicular structures were not well-formed for 87-OCholB and 90-OCholB compared to their counterparts, and amorphous aggregates were observed instead.

The subject of the next data set is HeLa cells. In words: Internalization of calcein loaded nanoparticles. It counts as cell-based. The settings on record: 8 h of exposure. The procedure: The internalization kinetics and efficiencies of OCholB LNPs were then studied using NR loaded LNPs and HeLa cells. […] Next, all of the NR delivery efficiencies of eight OCholB LNPs were determined after 8 h of exposure. […] Representative fluorescent images of NR/LNPs (NR/75-OCholB, NR/76-OCholB and NR/77-OCholB) treated HeLa cells are shown in FIG. 12D, from which it is easily observed that NR was delivered into the cells and mainly distributed in cytoplasm, by OCholB LNPs. Next, the internalization of negatively charged hydrophilic fluorescent dye, calcein, was studied. […] Next, the use of OCholB LNPs for the intracellular delivery of macromolecular cargo was explored, using fluorescent recombinant (−30)GFP-Cre protein and HeLa-DsRed cells as the model system. […] Delivery efficiency was tested at a range of (−30)GFP-Cre protein concentrations (25, 50 and 100 nM), with a consistent lipid/protein ratio (i.e., delivery with the final lipid concentration of 1.7, 3.3, and 6.6 μg mL^−1 respectively). 33.2%, 43.8% and 74% of GFP positive (GFP^+) cells were recorded for (−30)GFP-Cre/Lpf2k treated cells with the concentration of (−30)GFP-Cre 25 nM, 50 nM and 100 nM, respectively. […]

The cell viability is a per cent measure of how many cells are alive, often set against a control. Consider `CCCCCCCCCCCCCC[Se]CCOC(=O)CCN(CCCN(CC)CC)CCC(=O)OCC[Se]CCCCCCCCCCCCCC` [Lipidoid 81-O17Se], for which the cell viability with GFP-HEK cells [1] came out at 97.7%. For the same compound, in the data set with GFP-HEK cells [2], the “GFP knockout (GFP-negative cells)” value stood at 54.7%.

`CCCCCCCCCCCCCC[Se]CCOC(=O)CCN(CCC(=O)OCC[Se]CCCCCCCCCCCCCC)CCN1CCCC1` [Lipidoid 76-O17Se]: in the data set on GFP-HEK cells [1], the cell viability is given as 76.3%. Further, in data set [3], the “averaged hydrodynamic diameter (<Dh>)” value is reported as 129.4 nm and the “polydispersity index (PDI, μ2/I^2)” value was determined as 0.18. In addition, the “cells positive for DsRed (protein transfection efficiency)” value in the data set with HeLa-DsRed cells [4] is listed as 36.1%. Also, the “tdTomato signal in sections of lung” value with Ai14 mice is listed as “strong tdTomato signals”. Besides, in data set [5], the “FRET ratio (I575/I575+I505) variations” value is recorded as “negligible”. For the same compound, in the data set with HeLa-DsRed cells [6], the “green fluorescence emission (fluorescence microscopy)” value (from here on “green fluorescence emission”) is on record as “bright green fluorescence emission”. The “size measured by TEM” value in data set [7] is reported as 133 nm. Moreover, the “GFP knockout (GFP-negative cells)” value with GFP-HEK cells [2] was 50.2%.

For the compound `CCCCCCCCCCCCCCSCCOC(=O)CCN(CCC(=O)OCCSCCCCCCCCCCCCCC)CCN1CCCC1` [Lipidoid 76-O17S], in data set [3], the “averaged hydrodynamic diameter (<Dh>)” value is on record as 114.3 nm and the “polydispersity index (PDI, μ2/I^2)” value was 0.24. Besides, the “cells positive for DsRed (protein transfection efficiency)” value in the data set on HeLa-DsRed cells [4] worked out at 40.8%. Besides, in the data set on Ai14 mice, the “tdTomato signal in sections of lung” value is on record as “strong tdTomato signals”. The “green fluorescence emission” value in the data set with HeLa-DsRed cells [6] is “bright green fluorescence emission”. Further, the “size measured by TEM” value in data set [7] is 94 nm.

On to `CCCCCCCCCCCCCCOCCOC(=O)CCN(CCC(=O)OCCOCCCCCCCCCCCCCC)CCN1CCCC1` [Lipidoid 76-O17O], for which, in data set [3], the “averaged hydrodynamic diameter (<Dh>)” value was determined as 170.1 nm and the “polydispersity index (PDI, μ2/I^2)” value is 0.37. Moreover, the “green fluorescence emission” value with HeLa-DsRed cells [6] was “bright green fluorescence emission”. Also, in data set [7], the “size measured by TEM” value was determined as 145 nm.

In the data set on GFP-HEK cells [1], `CCCCCCCCCCCCCC[Se]CCOC(=O)CCN(CCCN(C)C)CCCN(CCC(=O)OCC[Se]CCCCCCCCCCCCCC)CCC(=O)OCC[Se]CCCCCCCCCCCCCC` [Lipidoid 400-O17Se] showed a cell viability of 66.7%. The GFP-positive cells in the data set on HeLa-DsRed cells [6] was found to be 42%. Moreover, in the data set with GFP-HEK cells [2], the “GFP knockout (GFP-negative cells)” value was 57.4%.

In the case of `O=C(O)CN(CC(=O)O)Cc1cc2c(cc1O)Oc1cc(O)c(CN(CC(=O)O)CC(=O)O)cc1C21OC(=O)c2ccccc21` [free calcein, calcein, reference compound], the “mean fluorescent intensity vs free calcein-treated cells” value in the data set on HeLa cells is recorded as “cannot enter into the cells efficiently”.

`CCCCCCCCCCCCCC[Se]CCOC(=O)CCN(CCCN(C)C)CCC(=O)OCC[Se]CCCCCCCCCCCCCC` [Lipidoid 80-O17Se] gave a cell viability in the data set on GFP-HEK cells [1] of 68.2%. In addition, in the data set on HeLa-DsRed cells [6], the GFP-positive cells amounted to 39%. Further, in the data set with GFP-HEK cells [2], the “GFP knockout (GFP-negative cells)” value was 57.7%.
